Experimental data as given in patent publication US20220296774A1, “SUPRAMOLECULAR STRUCTURES” (Cellularevolution Limited, priority 2019, published 2022).
No end group written: not given here. C16 = N-terminal C16 lipid

How the values were obtained:
Format in all cases: cell-based
[1] = test system: human stromal progenitor cells; assay: Human stromal progenitor cell proliferation (Alamar Blue), lipopeptides as media supplement
Protocol: (§1) Cell proliferation can be evaluated via Alamar Blue assays, with cell number extrapolated from standard calibration curves using known number of cells for each experiment. Cells are incubated at 37° C. with resazurin reagent at 50 μM (Sigma Aldrich), prepared in 1:10 dilution using fresh culture medium, for […], after which 100 μl of culture supernatants (in triplicate) are sampled for fluorescence emission analysis at 590 nm using either a Fluoroskan Ascent fluorescent spectrophotometer or a Varioskan™ Lux (both from Thermo Scientific). The incubation time differ depending on the experiment and on the cell type. • 1.4 Collagen Deposit Assay
(§2) The effect of the different nanostructure on biocompatibility and bioactivity was investigated next. For this study, the lipopeptides were used as a media supplement, rather than coating. The bioactivity of the lipopeptides has been evaluated for three different cell types, namely human stromal progenitor cells, human adipose-derived mesenchymal stem cells (hASCs) and immortalized mouse myoblast cell line (C2C12). • 2.2.1 Effect on Human Stromal Progenitor Cells
(§3) The inventors hypothesised that the effect exerted by the same lipopeptide molecule can be different depending on the solvent in which the self-assembly is initiated. Lumican, Matrixyl and RGDS lipopeptides were investigated as supplements to culture media using stock solutions which were previously self-assembled either in water or in medium. Specifically, cells were cultured for 7 days and proliferation was assessed at day 3 and 7, whereas collagen deposition was analysed at day 7.

[2] = test system: human stromal progenitor cells; assay: Collagen deposited by human stromal progenitor cells (Sirius Red assay); conditions: for amount of collagen deposited, higher compared to PA self-assembled in medium: self-assembled in water
Protocol: (§4) The amount of collagen deposited by the cells is investigated using the Sirius Red assay (Jimenez et al., 1985). In specific, cells are fixed in 70% ice-cold ethanol and transferred to −80° C. for at least 10 min to ensure the complete fixation of the material. Subsequently, the ethanol solution is removed and each well was gently washed with distilled water. Cells are treated with Sirius-red/picric acid solution (Sigma Aldrich) and incubated overnight at 4° C. with gentle agitation. The following day, any unbound dye is removed and cells were gently rinsed with distilled water. Cells are then treated with 500 μl of 1M NaOH (Fisher Scientific) at room temperature for 10 min under agitation to disperse the solution and 100 μL aliquots of each sample were then transferred in triplicate to a 96 well plate. The total collagen is calculated by comparing the absorbance of the resulting samples at 490 nm, read using either a Multiskan Ascent™ or a Varioskan™ Lux (both from Thermo Fisher Scientific), to that of known standard concentrations of collagen. Each tested condition is performed in triplicate. • 1.5 Atomic Force Microscopy (AFM)
as §2, §3

[3] = test system: human adipose-derived mesenchymal stem cells (hASCs); assay: hASC proliferation (Alamar Blue); conditions: 50 μM; day 3 and 7; not significant
Protocol: as §1
The hASCs were also cultured with RGDS lipopeptide previously solubilised above its c.a.c. in water and then diluted in SFM at the final concentration of 50 μM (FIG. 4). This was to understand if the different self-assembled structures affected hASCs behaviour as found for human stromal progenitor cell.
(§5) Moreover, hASCs were also cultured with Lumican or Matrixyl lipopeptides previously solubilised above their c.a.c. in water and then diluted in SFM at the final concentration of 50 μM (FIG. 5).

[4] = test system: human adipose-derived mesenchymal stem cells (hASCs); assay: Collagen deposited by hASCs (Sirius Red assay); conditions: 7 days in culture, not significant
Protocol: as §4, §5

[5] = test system: immortalized mouse myoblast cell line (C2C12); assay: C2C12 proliferation (Alamar Blue); conditions: solubilised in medium; 25 and 50 μM; since day 3
Protocol: as §1
C2C12 were cultured up to 7 days in serum-free medium (SFM) supplemented either with Lumican or Matrixyl or RGDS lipopeptides. Each lipopeptide stock was prepared above its c.a.c. either in serum-free medium (SFM) or in water (H2O). C2C12 proliferation was evaluated using Alamar Blue assay at day 3 and 7. The amount of deposited collagen was quantified using the Sirius Red assay at day 7.

[6] = test system: immortalized mouse myoblast cell line (C2C12); assay: Collagen deposited by C2C12 (Sirius Red assay); conditions: 25 and 50 μM; day 7
Protocol: as §4, with “Each tested condition is performed in triplicate. • 1.5 Atomic Force Microscopy (AFM)” left out
C2C12 were cultured up to 7 days in serum-free medium (SFM) supplemented either with Lumican or Matrixyl or RGDS lipopeptides. […] C2C12 proliferation was evaluated using Alamar Blue assay at day 3 and 7. The amount of deposited collagen was quantified using the Sirius Red assay at day 7.

Row | Substance | cell viability compared to the control ([1]; self-assembled in SFM, day 7, both conditions) | amount of deposited collagen compared to the control ([2]; self-assembled in SFM, day 7) | amount of deposited collagen, higher compared to lipopeptide self-assembled in water ([2]; self-assembled in SFM, day 7) [%] | cell proliferation when solubilised in medium rather than water [3] | collagen deposited by hASCs ([4]; solubilised in SFM) | cell proliferation [5] | collagen deposited when solubilised in SFM rather than water [6] | cell proliferation compared to non-supplemented SFM ([1]; self-assembled in medium, 12 and 25 μM) | cell proliferation compared to non-supplemented serum free medium (SFM) ([1]; self-assembled in water, supplemented at 25 μM and 12 μM, day 3 and 7) | collagen deposition compared to the control (SFM) ([2]; independently of the solvent (water or medium) of self-assembly, 7 days) | amount of collagen deposited, higher compared to PA self-assembled in medium ([2]; 12 μM, 7 days) [%] | amount of collagen deposited, higher compared to PA self-assembled in medium ([2]; 25 μM, 7 days) | collagen deposited by hASCs ([4]; solubilised in water)
1 | C16-KTTKS [Matrixyl lipopeptide] | dramatically decreased cell viability | significantly increased the amount of deposited collagen | 55 | slightly increase cell proliferation | slightly increased the collagen deposited | significantly increased | significantly increased |  |  |  |  |  | 
2 | C16-YEALRVANEVTLN [Lumican lipopeptide] |  |  |  | slightly increase cell proliferation |  | significantly increased cell proliferation | significantly increased | slightly increased cell proliferation only up to day 3 | significantly increased cell proliferation | significantly increased collagen deposition | 15 | ≈ 75% | slightly increased the collagen deposited
